# Measured values: PMC10473914, “Phosphorylation of Ack1 by the Receptor Tyrosine Kinase Mer” (Kinases and phosphatases, 2023)
# Entries after “also recorded” stand apart in the source; their conditions may differ. Where a SMILES comes first, the peptide text is derived from it. [ ]: non-standard residue; d: D form. The star is where a group is joined. FITC = O=C1OC2(c3ccc(O)cc3Oc3cc(O)ccc32)c2ccc(NC(=S)*)cc21; pY = N[C@@H](Cc1ccc(OP(=O)(O)O)cc1)C(=O)O
# Key:
# [1] = system: macrophages; conditions: cited from earlier work
# From the text: (§1) Gene expression studies in colon cancer patients have shown a correlation between Ack1 expression and the extent of immune cell infiltration. Ack1 is required for apoptosis induced by TRAIL, an apoptosis-promoting factor [25], and dysregulation of Ack1 is linked to abnormal apoptotic activity. Ack1 promotes the activation of the Toll-like receptor (TLR) family members TLR4, TLR7, and TLR9 in macrophages and dendritic cells. A small molecule inhibitor of Ack1 (AIM-100) re ...
# [2] = system: Ack1; conditions: mice treated with a TLR7 ligand; cited from earlier work
# From the text: as §1, with “It is increasingly clear that Mer plays a crucial role in the macrophage-mediated phagocytosis of apoptotic cells. […] Gas6 has a Gla domain at its N-terminus and binds to Mer and other TAMs to promote tyrosine kinase activity. […] Gene” for “Gene”
# [3] = molecular target: T1, Mer kinase domain (Homo sapiens, UniProt Q12866); assay: Fluorescence polarization binding of fluorescein-labeled phosphopeptides to Mer kinase domain
# T1 construct: His tag; host or cells: E. coli YGT cells co-expressing YopH tyrosine phosphatase and GroEL
# T1 sequence (Q12866 587-858 limits assumed): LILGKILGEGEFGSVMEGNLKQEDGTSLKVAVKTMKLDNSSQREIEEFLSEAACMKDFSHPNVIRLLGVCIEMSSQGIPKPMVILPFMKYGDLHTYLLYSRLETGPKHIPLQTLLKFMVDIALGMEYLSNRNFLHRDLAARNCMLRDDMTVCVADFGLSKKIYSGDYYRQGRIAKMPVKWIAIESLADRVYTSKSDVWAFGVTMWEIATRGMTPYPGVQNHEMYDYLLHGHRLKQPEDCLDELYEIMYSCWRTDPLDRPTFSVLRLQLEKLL
# Experimental: (§2) Figure 4. Ack1 MHR-derived peptides. (A) Position of the MHR domain in Ack1. The expanded sequences show an alignment between Mig6 and the MHR of Ack1, with Y859–Y860 in yellow. Asterisks indicate conserved residues. (B) Phosphorylation of MHR-derived peptides (100 μM) by Mer was measured using the phosphocellulose paper binding assay (SEM error bars). (C) Binding of fluorescein-labeled pY860 peptide to Mer kinase domain was measured by fluorescence polarization.
# To confirm the interaction between pY860 and Mer, we attached fluorescein to the N-terminus of peptide pY860 and measured fluorescence polarization in the presence of increasing concentrations of Mer catalytic domain (Figure 4C).
# Phosphotyrosine-containing peptides were fluorescently labeled by reaction with fluorescein isothiocyanate (5 molar equivalents) in 100 mM potassium phosphate buffer (pH 7.0) for 1 h at room temperature. The fluorescent peptides were purified by gel filtration chromatography on G15 Sephadex. Fluorescence polarization was measured in a Wallac1420 Victor2 instrument using 96-well half area black plates (Thermo Fisher, Waltham, MA, USA). The excitation filter was 485 nm, and the emission filter was 535 nm. Measurements were performed in volumes of 50 μL using a buffer of 50 mM Tris (pH 7.4), with peptide concentrations of 0.25 μM or 0.5 μM. The data were analyzed with Origin software (Origin v.7).
# [4] = molecular target: fluorescein-labeled Ack1 MHR peptide pY860; assay: fluorescence polarisation; fluorescein-labelled phosphopeptide at 0.25 or 0.5 uM, increasing concentrations of Mer catalytic domain; 50 mM Tris pH 7.4, 50 uL; apparent Kd
# [5] = system: Mer kinase; assay: Phosphocellulose paper binding assay: phosphorylation of MHR-derived peptides by Mer; type: biochemical, human; conditions: peptide 100 μM; [γ-32P]ATP; purified Mer kinase domain; 30 °C
# Experimental: as §2
# For IP-kinase assays, cell lysates (1 mg protein) were incubated with 30 μL of EZview red anti-FLAG M2 affinity resin at 4 °C for 4 h-overnight, then washed three times with Tris-buffered saline. A portion of each sample was eluted with SDS-PAGE sample buffer and analyzed by anti-Flag Western blotting. […]
# Synthetic peptides and phosphopeptides were purchased from Genemed Synthesis Inc., San Antonio, TX, USA and were purified by semipreparative HPLC on a Vydac C18 column. Peptide phosphorylation was measured using the phosphocellulose paper binding assay with [γ-^32P] […] In this assay, the production of ADP was coupled to the oxidation of NADH, which was measured as a reduction in absorbance at 340 nm. […] Absorbance data were recorded every 8 s. Kinetic constants were determined by nonlinear fitting to the initial velocity vs. (substrate) curves using GraphPad Prism, San Diego, CA, USA (v.9).
compound,measurement,setting,value
c1ccc(-c2oc3ncnc(NC[C@@H]4CCCO4)c3c2-c2ccccc2)cc1 [AIM-100],Effect on TLR-mediated activation of macrophages,[1],reduced
same,Effect on lupus symptoms / lupus-like phenotype,[2],mitigated the lupus symptoms; also recorded: diminishing the lupus-like phenotype
CC(C)C[C@H](NC(=O)[C@H](Cc1ccc(OP(=O)(O)O)cc1)NC(=O)[C@H](Cc1ccc(O)cc1)NC(=O)[C@H](Cc1c[nH]cn1)NC(=O)[C@@H](NC(=O)[C@H](CO)NC(=O)[C@H](CO)NC(=O)[C@@H](NC(=O)[C@H](CCCCN)NC(=O)[C@H](CCCCN)NC(=O)CNC(=O)[C@H](CC(=O)O)NC(=O)[C@H](CCCNC(=N)N)NC(=S)Nc1ccc2c(c1)C(=O)OC21c2ccc(O)cc2Oc2cc(O)ccc21)C(C)C)[C@@H](C)O)C(=O)N[C@@H](CC(C)C)C(=O)N1CCC[C@H]1C(=O)N[C@@H](CCC(=O)O)C(=O)O [pY860] ({FITC}-RDGKKVSSTHY[pY]LLPE-OH),Kd,[3],5.4 µM
His-tagged Mer kinase domain (from UniProt Q12866 587-858) (domain or fragment),Kd,[4],5.4 µM
"RDGKKVSSTHpYYLLPE [pY859, Ack1 MHR-derived phosphopeptide containing phosphorylated Y859]",Binding of peptide to Mer (fluorescence polarization),"[3]; fluorescein-labeled peptide, 50 mM Tris pH 7.4, peptide 0.25 or 0.5 μM",below the detection limit; also recorded: poor binding
"RLSSSPGKTMPTTQSFASDPKYA [MHR1, Ack1 MHR-derived synthetic peptide containing Y827]",Phosphorylation of peptide by Mer (substrate quality),[5],not a good substrate
